# Test results as given in patent US8093393B2, “Cationic ceramides, and analogs thereof, and their use for preventing or treating cancer” (MUSC Foundation for Research Development, priority 2004, dated 2012).
# Where two headings read alike, the source gives them in different places.
# Assays:
# [1] = test system: MCF7 breast carcinoma cells; experiment: Cell proliferation and viability, Trypan blue exclusion assay; format: cell-based; details: for IC50: 48 h treatment, read-out: IC50, inhibitory effect on MCF7 cell growth
# Method: FIGS. 5A-5F show the dose dependent effects of CCPS analogs on survival of MCF7 breast carcinoma cells in comparison to the activity of D-e-C6-ceramide, which is commonly used as a model of ceramide action. Cell proliferation and cell viability were determined by Trypan blue exclusion assay. These assays were performed using duplicate samples in two or three independent experiments.
# Cell Proliferation: Cells were seeded into plates at a density of approx. 50% corresponding to 1×10^6 cells, in 10 ml of 10% FCS and after an over night incubation the cells were treated with LCL compounds at concentration 0-20 μM in ethanol (ethanol level was kept below 0.1%) and the changes in cell numbers after 48 h were determined and expressed as a percentage of the untreated controls.
# Briefly, media was removed, cells were washed twice with PBS, detached using 1% Trypsin and centrifuged at 800 rpm. Cell pellets were resuspended in PBS and Trypan blue (Sigma Chemicals, St. Louis, Mo., USA) was added (1:1 dilution). Under light microscope, the percentage of unstained and stained cells was assessed.
# To examine the anticancer activity of CCPS analogs of the invention, their inhibitory effect on MCF7 breast carcinoma cells were analyzed and compared to the activity of D-e-C6-ceramide, which is commonly used as a model of action for ceramides. Cell proliferation and cell viability were determined by Trypan blue exclusion assay.
# [2] = test system: isolated rat liver mitochondria; experiment: Accumulation / binding in isolated mitochondria
# Method: FIG. 16. […] Bar 2 and 4 (+FCCP), ΔΨ was dissipated by addition of FCCP at 1 μM plus antimycin A at 0.5 μg/mg protein from the beginning of the experiment. Results are expressed as mean+SEM of n=3, *p=0.01 versus control.
# FIG. 23. […] Trace 3 was corrected for the absorbance of TMRM.
# Preparation of mitochondria from rat liver.
# Mitochondrial incubation medium.
# Analysis of ceramides by mass spectroscopy (MS).
# [3] = test system: isolated rat liver mitochondria; experiment: Cytochrome C release from mitochondria; format: biochemical; details: 40 μM; for cytochrome C released from mitochondria: 20 minutes of incubation
# Method: FIGS. 20A and 20B. […] Two min after the addition of CSA and EGTA samples were collected and treated for cytochrome C analysis. Alamethicin (ALA, 7 μg/mg protein) was added as indicated to determine the full degree of permeabilization and maximum cytochrome C release. […] Total amount of cytochrome C is 1.95 μg/mg protein.
# Cytochrome C release from mitochondria. Aliquots of mitochondrial suspension were taken as indicated in figure legends and centrifuged at 15,000 g for 3 min. The supernatant and mitochondrial pellet were frozen and stored at […]. Cytochrome C in supernatants and pellets was quantified using the Quantikine cytochrome C ELISA kit (R&D Systems, Minniapolis, Minn.).
# MCF7 cells [4] = test system: MCF7 cells
# Method: (§1) Dose-response curves of ceramides effect on viability of Hep G2 and MCF7 cells. Hep G2 and MCF7 cells were incubated at the condition described in Section 9.1. […] Cell viability was assessed 46 hours after addition of ceramides. Data are expressed as a mean+SEM of n=3.
# (§2) Cell culture. Hep G2 cells (obtained from ATCC) were cultured in Minimum essential medium (Eagle) supplemented with 10% fetal bovine serum, 2 mM L-glutamine, non-essential amino acids, 1 mM sodium pyruvate, and 1.5 g/L sodium bicarbonate in humidified air (5% CO2) at 37° C. […] MCF7 cells (obtained from ATCC) were cultured in RPMI 1640 Medium supplemented with 10% fetal bovine serum and 2 mM glutamine in humidified air (5% CO2) at 37° C. All media were supplemented with 100 U/ml penicillin and 100 μg/ml streptomycin.
# (§3) Measurement of cell viability. Hep G2 or MCF7 cells were plated at a density of 10^4 cells/well in 96-well plates in the medium described under Cell culture. After 24 hours of incubation, the cells were treated with ceramides for 46 hours in 2% fetal bovine serum medium. Cell viability was determined by MTT (3-[4,5-dimethylthiazol-2-yl]-2,5-diphenyl tetrasodium bromide) based assay according manufacture recommendation (Sigma, St. Louis, Mo.).
# [5] = Solubility of ceramides and ceramidoids in water; details: 37° C.
# [6] = test system: isolated rat liver mitochondria; experiment: Mitochondrial permeabilization (ΔΨ, large-amplitude swelling); details: for IC50: read-out: IC50 of mitochondrial swelling, swelling 30 min after ceramide treatment
# Method: Effects of ceramides on ΔΨ value (17A) and mitochondrial large-amplitude swelling (17B, 17C) Mitochondria were incubated at the condition described under Section 9.1 except that 2 μM of TPP+ was present from the beginning of the experiment. Alamethicin (ALA), a pore-forming peptide (7 μg/mg protein), was added as indicated to induce permeabilization and determine the full extend of potential changes in the parameters of interest. Where indicated ceramides at 40 μM were present from the beginning of the experiment. FIGS. 17A and 17B show time-courses of ceramides effect on ΔΨ and mitochondrial swelling. […] Degree of mitochondrial swelling was determined 30 min after ceramide treatment.
# Mitochondria were incubated at the condition described under Section 9.1 except that 2 μM of TPP+ was present from the beginning of the experiment. Trace 2, no addition. […] Trace 4, FCCP at 1 μM was present from the beginning of the experiment. […] Alamethicin (ALA), a pore-forming peptide (7 μg/mg protein), was added as indicated to induce permeabilization and determine the full extent of potential changes in the parameters of interest.
# Mitochondria were incubated at the condition described under “Experimental procedures”. […] Trace 2, DCCD at 100 μM was added from the beginning of the experiment. Alamethicin (ALA) was added as indicated to determine full degree of permeabilization. […] The curve was generated from experiments similar to that depicted in traces 1 and 2 with indicated concentration of DCCD present from the beginning of the experiment.
# Effect of hydrophobic cations on the time-course of mitochondrial large-amplitude swelling. Alamethicin (ALA), a pore-forming peptide (7 μg/mg protein), was added as indicated to induce permeabilization and determine the full extent of mitochondrial swelling. Where indicated cations at 60 μM were added to the incubation medium. Trace 1, no additions; trace 2, C2 pyridinium ceramide; trace 3, TMRM; trace 4, cetyl pyridinium; trace 5, TPP^+. Trace 3 was corrected for the absorbance of TMRM.
# Time-course (A) and dose-response (B) of the effect of C6 pyridinium dihydroceramide on mitochondrial large-amplitude swelling. Mitochondria were incubated at the condition described under “Experimental procedures”. Alamethicin (ALA), a pore-forming peptide (7 μg/mg protein), was added as indicated to induce permeabilization and determine the full extent of mitochondrial swelling. Where indicated ceramides at 30 μM were added to the incubation medium. […] Trace 1, no additions; trace 2, C6 pyridinium ceramide; trace 3, C6 pyridinium dihydroceramide. […] Degree of mitochondrial swelling was determined 15 min after ceramide treatment. Trace 1, C6 pyridinium dihydroceramide; trace 2, C6 pyridinium ceramide.
# MCF7 cells [7] = details: 5 μM, 5 h
# Method: FIGS. 4A-4C show the cellular levels of CCPS analogs. MCF 7 cells were treated with 5 μM concentration of CCPS analogs over the time and cellular level of the nonmetabolized CCPSs was measured by MS methodology as shown under Experimental. Results are expressed as % of concentration applied.
# A parallel set of cells was used to determine cell proliferation and to prepare lipid extracts for MS analysis.
# Briefly, for the indicated points, media was removed, cells were washed twice with PBS, scraped into cold PBS (2×1.0 ml), transferred to glass vials and centrifuged for 5 min at 800 rpm. Cell pellets corresponding to ˜1×10^6 cells, were fortified with the internal standards IS (C17 base D-erythro-sphingosine: 17Sph, C17 sphingosine-1-phosphate: 17Sph-1P, N-palmitoyl-D-erythro-C13 sphingosine: 13CC16-Cer and N-heptadecanoyl-D-erythro-C17shingosine: 17CC17-Cer) and extracted (2×2 ml) into a one-phase solvent system with ethyl acetate/iso-propanol/water (60/30/10 v/v). One ml of this extract was used for Pi determination after lipid re-extraction by the Bligh and Dyer method. Remaining lipid extract was evaporated, reconstituted in 100 μl of methanol, and samples were injected on the Surveyor/TSQ 7000 LC/MS system and gradient eluted from the BDS Hypersil C8, 150×3.2 mm, 3 μm particle size column, with 1.0 mM methanolic ammonium formate/2 mM aqueous ammonium formate mobile phase system. Peaks corresponding to the target analytes and IS were collected and processed using the Xcalibur software system.
# Cellular level of CCPS analogs was established by MS methodology.
# UM-SCC-22A cells [8] = experiment: MTT cell survival assay and isobologram studies; format: cell-based, human; details: UM-SCC-22A, read-out: IC50, cell growth
# UM-SCC-22A cells [9] = experiment: Cell cycle profiles by flow cytometry; format: cell-based, human; details: 1 μM, 48 hr
# Method: FIGS. 13A to 13B. Roles of CCPS on cell cycle profiles, and telomerase activity of UM-SCC-22A cells. (FIG. 13A) The effects of D-e-C6—, D-e-C12- and L-th-C12-pyridinium ceramides (at 1 μM for 48 hr) on cell cycle profiles of UM-SCC-22A cells were determined and compared to that of untreated cells using flow cytometry as described in Materials and Methods. (FIG. 13B) The effects of 0, 100, 250 and 500 nM L-t-C6-Pyr-Cer (LCL-124) (lanes 1-4, respectively) at 96 hr treatment in UM-SCC-22A cells on telomerase activity was assessed using TRAP assay. Lanes 5 and 6 contain positive (+) and negative (−) controls. To examine whether C6-Pyr-Cer inhibits telomerase activity directly, cell extracts (as shown in lane 1) were incubated in the presence of various concentrations of L-th-C6-Pyr-ceramide (LCL-124; 10, 20 and 100 μM) and telomerase activity was determined using TRAP assay (lanes 7-9, respectively). The presence of non-telomeric 36 bp internal standard (IS) in the TRAP assay serves as a control for polymerase chain reaction, and used for quantitation/normalization of the activity of telomerase. The results shown are representative of at least two independent experiments.
# Analysis of cell cycle profiles. The effects of pyridinium ceramides on the cell cycle profiles of A549 cells at 24 hr were analyzed in the presence of DNase-free RNase and propidium iodine (PI) by flow cytometry as described in Ogretmen et al., J. Biol. Chem. 2001; 276: 24901-24910, which is incorporated herein by reference in its entirety. Untreated cells were used as controls.
# Analysis of cell cycle profiles. […] Untreated cells were used as controls.
# [10] = aqueous conditions at pH 4.5, 7.5 and 8.5 over 48 hrs
# MCF7 cells [11] = details: 5 μM
# Method: Data are expressed as changes in the total ceramide level (pmol) or individual ceramide components (pmol) normalized to the phospholipid level, Pi (nmol) present in the Bligh & Dyer lipid extract and shown as changes to the control cells: Ceramide/Pi[pmol/nmol] (% Control).
# Endogenous ceramide: ESI/MS/MS analysis of endogenous sphingoid bases, sphingoid base 1-phosphates and ceramide species was performed on a Thermo Finnigan TSQ 7000 triple quadrupole mass spectrometer, operating in a Multiple Reaction Monitoring (MRM) positive ionization mode using modified version (Bielawski, J. et al., SERMACS 2003, poster #68) of the protocol previously published (Sullard, M. C., Merrill, A. H., Sciences stke 2001/67/p 11).
# Briefly, for the indicated points, media was removed, cells were washed twice with PBS, scraped into cold PBS (2×1.0 ml), transferred to glass vials and centrifuged for 5 min at 800 rpm. Cell pellets corresponding to ˜1×10^6 cells, were fortified with the internal standards IS (C17 base D-erythro-sphingosine: 17Sph, C17 sphingosine-1-phosphate: 17Sph-1P, N-palmitoyl-D-erythro-C13 sphingosine: 13CC16-Cer and N-heptadecanoyl-D-erythro-C17shingosine: 17CC17-Cer) and extracted (2×2 ml) into a one-phase solvent system with ethyl acetate/iso-propanol/water (60/30/10 v/v). One ml of this extract was used for Pi determination after lipid re-extraction by the Bligh and Dyer method. Remaining lipid extract was evaporated, reconstituted in 100 μl of methanol, and samples were injected on the Surveyor/TSQ 7000 LC/MS system and gradient eluted from the BDS Hypersil C8, 150×3.2 mm, 3 μm particle size column, with 1.0 mM methanolic ammonium formate/2 mM aqueous ammonium formate mobile phase system. […]
# Quantitative analysis was based on the calibration curves generated by spiking an artificial matrix with the known amounts of the target analyte synthetic standards and an equal amount of the internal standards (IS). […]
# Final data were adjusted and results were expressed as level of particular sphingolipids/Pi (pmol/nmol).
# Method for Hep G2 cells: as §1, §2, §3
Compound,IC50 [1] [µM],cytochrome C released from mitochondria [3],IC50 (Hep G2 cells) [µM],IC50 (MCF7 cells [4]) [µM],IC50 [6] [µM],"Cellular level, % of concentration applied (MCF7 cells [7]) [%]",inhibitory effect on MCF7 cell growth (in words) ([1]; 48 h),IC50 (UM-SCC-22A cells [8]; 48 hr) [µM],"IC50 (UM-SCC-22A cells [8]; 96 hr, DMEM) [µM]",cell cycle profile (UM-SCC-22A cells [9]),Stability (decomposition) by MS [10],effect on endogenous ceramide (MCF7 cells [11]),further results
"CCCCCCCCCCCCC/C=C/[C@@H](O)[C@H](CO)NC(=O)CCCCC [C6-Cer, D-erythro-C6-ceramide, reference compound]",15,no effect on cytochrome C release,~31,~16,> 60,,,,,,,,"inhibition of MCF7 cell growth ([1]; 10 μM, 48 h): ~35%; suppression of accumulation by dissipation of ΔΨ (antimycin plus FCCP) ([2]; 10 μM): insensitive to dissipation of ΔΨ; association with mitochondria ([2]; 10 μM, energized mitochondria): 79.3%; binding to mitochondria ([2]; 30 μM, at 4 min): 5±0.8 nmol/mg protein; Solubility at 37° C. [5]: 1.4 µg/mL; Solubility at 37° C. ([mM]) [5]: (0.0036) mM"
"CCCCCCCCCCCCC/C=C/[C@@H](O)[C@H](CO)NC(=O)CCCCCCCCCCCCCCC[n+]1ccccc1.[Br-] [LCL30, D-erythro-2-N-[16′-(1″-Pyridinium)-hexadecanoyl]-sphingosine Bromide]",1.8,,,,,~17,"similar, concentration dependent (1.0-10.0 μM) inhibitory effect on cell growth",~1,~0.3,significant increase in the population of cells in G0/G1,no evidence of their decomposition,caused generation of an “early Cer”,IC50 ([1]; listed as LCL-30): 1.6 µM
"CCCCCCCCCCCCC/C=C/[C@@H](O)[C@H](CO)NC(=O)CCCCCCCCCCC[n+]1ccccc1.[Br-] [LCL88, D-erythro-2-N-[12′-(1″-Pyridinium)-dodecanoyl]-sphingosine Bromide]",0.6,,,,,23,,~1,~0.3,significant increase in the population of cells in G0/G1,no evidence of their decomposition,caused generation of an “early Cer”,
D-erythro-2-N-[6′-(1″-Pyridinium)-hexanoyl]-sphingosine Bromide [LCL29],1,about 40%,~8,~2,~27.5,,caused inhibitory effect on MCF7 cell growth,~1,,significant increase in the population of cells in G0/G1,,caused generation of an “early Cer”,"IC50 (UM-SCC-22A cells [8]; 96 hr, DMEM, listed as D-e-C6-Pyr-Cer): ~0.3 µM; fold decrease in cytochrome C release with FCCP plus antimycin A ([3]; 20 minutes): ~3 fold; effect on ΔΨ and mitochondrial swelling (in words) ([6]; 40 μM): complete dissipation of ΔΨ"
